The nature of data set [1]: ·OH and other ROS detection (HPF) upon X-ray irradiation. It is filed as physicochemical. As to the method: To study other ROS generation, fluorescence sensors DHR123 (for O2·^− detection) and HPF (for ·OH detection) were used. For O2·^− detection, DHR123 (10 PM) was added to a solution of IDPASu (10 M) in PBS (0.01 M pH 7.4, 50% DMSO), followed by X-ray irradiation at different doses of 5 mGy (250 μGy s^−1 for 20 s) and 2 Gy (100 mGy s^1 for 20 s). The fluorescence changes in DHR123 were recorded at λex of 505 nm and λem of 534 nm. For ·OH detection, HPF ([…]) was added in a solution of IDPASu (10 M) in PBS (0.01 M, pH 7.4, 50% DMF), followed by X-ray irradiation at different doses, namely, 5 mGy (250 μGy s^−1 for 20 s) and 2 Gy (100 mGy s^−1 for 20 s). The fluorescence changes in HPF were collected at ex of 450 nm and λem of 515 nm. The ROS production was calculated by the corresponding standard curve.

The subject of the next data set is subcutaneous U87 tumour. Briefly: RDT of subcutaneous U87 tumour-bearing mice with IDPASu. It is filed as in vivo, mouse (BALB/c nude), human U87. Conditions: intratumoral, X-ray total 0.3 Gy in three fractions. How it is done:
To establish a subcutaneous glioblastoma mouse model, BALB/c nude mice (six weeks old, female) were anaesthetized with isoflurane (2.0%) and subcutaneously injected with human U87 or U87-Luc (2×10^6 per mouse) suspended in PBS (0.01 M, pH 7.4) on the left flank or bilateral flank of each mouse. The tumour size was calculated according to the formula V=½ab^2, where a and b are the longest and shortest diameter of the tumour, respectively. After tumour sizes reached ~70 mm^3, the mice were used for imaging and therapy. […] At 15 min post-injection, bioluminescence signals were recorded using an IVIS imaging system with an open filter and automatic acquisition time. […]
For subcutaneous tumour therapy, to study the X-ray dynamic activity of IDPASu, U87-tumour-bearing mice were randomly divided into four groups (PBS, PBS+X-ray, IDPASu and IDPASu+X-ray), which includes five mice per group. […] The tumour volume and body weight of mice were monitored every two days. […] The brain tumour size was monitored using bioluminescence signals of luciferin from the tumour site every three days. […]

Data set [2] in a line: In vivo limit of detection of subcutaneously injected IDPASu (radio afterglow). Conditions: subcutaneous injection, X-ray 5 mGy, LOD=3σ/k. Also noted: species or system mouse (BALB/c nude). As to the method: To test the LOD of IDPASu for in vivo RAI, 20 μl of the mixture solution of IDPASu at different concentrations (100.0, 50.0, 20.0, 10.0, 5.0, 1.0, 0.5 and 0 μM) and solubilizing agent (2-carboxyethyl)-o-cyclodextrin sodium salt (β-CD) at 100 μM was subcutaneously injected into the left flank of BALB/c nude mice (six weeks old). After 30 min, the left flank of mice were irradiated with X-rays at 5 mGy (250 μGy s^−1 for 20 s) as the other areas were protected by a 3.4-mm-thick lead shield with a notch under the X-ray irradiation. Radio afterglow signals were recorded. The detection limit was calculated using this equation: LOD=3σ/k, where a represents the s.d. of blank and k implies the slope of the radio afterglow intensities.

Data set [3] in a line: X-ray-induced NIR afterglow properties (Table 3). Conditions: X-ray 0.005 Gy. From the text: To enable radio afterglow for organic molecules, we proposed a radiodynamic approach based on organic luminophores (DPAs and IDPAs) that were able to harvest X-ray energy for an in situ cycloaddition reaction to form self-luminescent chemical defects (FIG. 4b). This is mechanistically different from inorganic nanophosphors wherein the host materials (for example, fluoride and aluminosilicate) absorb X-rays, lattice defects delay excitons, and rare-earth/transition metal ion dopants (for example, Nd^3+ and Eu^3+) emit light (Richard, C. & Viana, B., Light.: Sci. Appl. 2022, 11, 123). Because of the presence of heavy atoms (iodine), IDPAs had higher radiodynamic ^1O2 generation and stronger radio afterglow emission than the iodine-free counterpart (DPAs). The radio afterglow dynamic processes of IDPAs were inducible even at a tissue depth of 15 cm, which was impossible when using light.

In the case of `COC(=C1C2CC3CC(C2)CC1C3)c1cc(O)c(I)cc1/C=C/C1=CC(=C(C#N)C#N)c2ccccc2S1` [IDPASu], in data set [1] (250 μGy s^−1 or 100 mGy s^−1 for 20 s), the “HPF+IDPASu (+X-ray) versus HPF+IDPASu (−X-ray), ·OH” value is given as “not significant”. Further, the “other ROS generation” value in data set [1] (X-ray irradiation) is reported as “undetectable”. For the same molecule, in the data set with subcutaneous U87 tumour, the body weight loss result is listed as “no loss in body weight” and the tumour growth entry is reported as “completely inhibited the tumour growth”. Further, the “limit of detection (LOD), in vivo imaging” value in data set [2] stood at 49 nM. In data set [3], this molecule returned an afterglow half-life of 18.4 min, an afterglow life-time of 25 h and a λem of approximately 773 nm.

The values are drawn from patent US20260335468A1, “MOLECULAR RADIOAFTERGLOW PROBES FOR CANCER RADIODYNAMIC THERANOSTICS” (NANYANG TECHNOLOGICAL UNIVERSITY, priority 2023, published 2026).
